“Also recorded” adds a separate entry of the source. Each block holds one compound with its values, some of them ahead of it.
Experiments:
HLA-DR10 = assay: NMR screening of ligands for binding to HLA-DR10; parameters: species or system human
Excerpt: Determination of ligand binding and orientation can also be determined using a number of different methods. These include, but are not limited to Saturation Transfer Difference nuclear magnetic resonance (Mayer and Meyer (1999) Angew Chem Int Edit, 38:1784-1788) and Transfer NOE (trNOE) nuclear magnetic resonance (NMR) spectroscopy (Henrichsen et al. (1999) Angew Chem Int Edit., 38:98-102; Cosman et al. (2002) Chem Res Toxicol 15: 1218-1228). These methods can be used to screen the ligands in mixtures of several to several hundred per experiment to determine which ligands bind to the target molecule(s) e.g., under biologically relevant conditions and to determine which ligands bind to the same (or different) sites. Diffusion experiments (Lin et al. (1997) J. Organic Chem., 62: 8930-8931) can also be performed with those ligands that have been determined to bind in order to assess the relative binding affinity of each compound.
As a result of the computational docking, 30 compounds from both the Site 1 and Site 2 lists were experimentally screened by NMR.
A number of cell surface protein receptors have been identified that distinguish malignant cancer cells from their normal counterparts. […] This has led to the development of a variety of antibody-based, receptor-specific reagents conjugated to radioisotopes for use in radio-immunotherapy. […]

HLA-DR10 protein = assay: Surface plasmon resonance binding of SHALs to isolated HLA-DR10 protein; parameters: species or system human; settings: biotinylated versions of the SHALs immobilized on streptavidin chip; HLA-DR10 isolated from Raji cells
Excerpt: In certain embodiments, the binding affinities of the best SHALs can be estimated by mass spectrometry of the SHAL-target complexes, followed by a more accurate surface plasmon resonance (SPR) spectroscopy (Shuck (1997) Annu Rev Biophys Biomol Struct., 26: 541-566; Van Regenmortal (2001) Cell Mol Life Sci., 58: 794-800) measurement of the SHAL-target binding affinity using for example, the IASYS Plus or BiaCore instruments. In order to perform the SPR measurement, biotin can be added to the linker through a third functional group (as described above) and the SHAL can be bound to commercially available streptavidin coated chips. […] Experiments can be performed to test the selectivity of SHAL binding to targets in the presence of molecules related to the targets. Thus, for example, where the SHAL is directed to HLA-DR10, the SHAL can be evaluated for its ability to bind target molecules in the presence of Raji cell surface proteins extracted and separated by affinity chromatography. After treating the gel with the biotinylated SHAL and rinsing out excess unbound SHAL, the location of the bound SHAL can be detected by staining with Rhodamine tagged streptavidin.
Protein binding experiments were conducted using surface plasma resonance on a Biacore 3000 (Biacore, Piscataway, N.J.) at 25° C. A research grade streptavidin immobilized chip (SA chip, Biacore) was preconditioned and normalized according to the manufacturers instructions. Biotin labeled SHALs were dissolved in DMSO and diluted in 1.05×PBS (Biacore) to a final concentration of 1×PBS pH 7.4, 5% DMSO, to match the running buffer. These SHALs were injected over the flow cell to yield a surface density of 500-1000RU (response units). Biotin (50 μM E-Z Link Amine-PEO2-Biotin, Pierce) was injected over all cells for 1 minute at 20 μl/min as a block to reduce non-specific binding. One flow cell was used as a reference cell and a different SHAL was immobilized on each of the three other cells.
Experiments measuring the binding of HLA-DR10 to the SHALs were carried out at a flow rate of 30 μl/minute in PBS pH7.4 running buffer using all 4 flow cells. HLA-DR10 isolated from Raji cells (Rose et al. (1996) Cancer Immunol Immunother 43:26-30) was diluted in running buffer to a final concentration ranging from […] and a series of concentrations were run randomly in triplicate. Protein was injected for 3 minutes, allowed to dissociate for 5 minutes followed by regeneration of the surface using a 1 minute injection of 0.1% sodium dodecylsulfate (SDS) followed by a washing step with a 2 minute injection of running buffer. The data, which were double referenced by subtracting the blank reference surface and an average of 5 blank injections, were processed using the program SCRUBBER (University of Utah).
Using homology modeling, HLA-DR amino acid residues critical for Lym-1 binding were mapped on a 3-D model of the HLA-DR10ß subunit (Balhorn et al, (2007) Clin. Cancer Res., 13(Suppl. 18): S5621-S5628). Cavities within the Lym-1 epitopic surface of the protein were identified using SPHGEN (Kuntz et al. (1982) J. Mol Biol. 161: 269-288; Desjarlais et al. (1988) J. Med. Chem., 31: 722-729). After computational ligand docking for each of the cavities, a combination of NMR spectroscopy, surface plasmon resonance (BIAcore 3000; Biacore, Piscataway, N.J.) and competitive binding experiments were used to confirm ligand binding to HLA-DR10 protein. […]

[1] = system: Raji cells expressing HLA-DR10; assay: Whole cell binding assay with 111In-labeled SHAL; type: cell-based, human
Experimental: Raji human Burkitt's lymphoma B-cells (American Type Culture Collection, Manassas, Va.) were maintained in RPMI-1640 media supplemented with 10% fetal bovine serum, 2mM L-glutamine, 1 mM sodium pyruvate, 1% of a solution of nonessential amino acids (GIBCO #11140-050), and 100 units/ml of Penicillin G, 100 μg/ml Streptomycin, and 0.25 μg/ml of Amphotericin B at 37° C. in a humidified 5% CO2 atmosphere. Jurkat's cells (American Type Culture Collection, Manassas, Va.), an acute leukemia T-cell line, were maintained in the same medium with the addition of 10 mM 4-(2-hydroxyethyl)-1-piperazineethanesulfonic acid (HEPES).
A series of experiments were conducted to quantify the uptake of the ^111In-labeled parent SHAL (DvLPBaPPP)2LLDo and its hexa-arginine analog (DvLPBaPPP)2LArg6AcLLDo by Raji cells, a cell line that has been previously shown to express the HLA-DR10 variant. The assays were conducted using aliquots containing 10^6 cells suspended in 150 μl of PBS with 5% bovine serum albumin (BSA). Aliquots of cells were treated with 0.1, 1, 5, 10 or 25 ng of ^111In-labeled (DvLPBaPPP)2LLDo or (DvLPBaPPP)2LArg6AcLLDo for one hour at both 4° C. and 22° C. The tubes containing the treated cells were centrifuged to separate the cell pellet from the supernatant and the two fractions were counted in a calibrated gamma well counter to determine the amount of bound and free SHAL. Half of the cell pellets were washed twice with PBS and incubated at 22° C. for 15 min before centrifuging them again. The pooled washes and washed cell pellets were subsequently counted in the gamma well counter to assess how much of the bound SHAL could be removed by washing.
In vitro cell binding experiments were conducted using ^111In-labeled parent SHAL and the hexa-arginine SHAL analog to quantify SHAL uptake and to evaluate the effect of adding the hexa-arginine tag. Uptake was assessed using Raji cells, a lymphoma cell line expressing HLA-DR10. Aliquots containing 10^6 cells were incubated with increasing amounts of SHAL containing ^111In labeled SHAL as a tracer, and cell-associated ^111In was measured before and after washing the cell pellets.

Raji cells = assay: 3-D confocal microscopy, Raji cells; type: cell-based, human; settings: biotinylated reagent, 1 hr; 10 μM SHAL or 10 nM chLym-1; listed as parent SHAL
Experimental: SHAL binding and internalization by Raji and Jurkat's cells was assessed using the method described previously by O'Donnell et al. (O'Donnell et al. (1998) Prostate 37:91-97). Experiments were conducted comparing the binding of (DvLPBaPPP)2LLDo (the parent SHAL), its hexa-arginine analog (DvLPBaPPP)2LArg6AcLLDo, and chimeric Lym-1 (chLym-1) to Raji cells. All steps were performed at 20° C., unless indicated.
Four million Raji cells (>92% viability) in log phase growth were pelleted at 300×g, washed, and blocked for 30 min in 1 ml of 1% fraction V BSA in PBS, with constant rotation. Cells were then incubated 1 hr, at 1 million per 250 μl, with either 1% BSA in PBS or a biotinylated primary reagent: 10 nM chLym-1, 10 μM parent SHAL, or 10 μM hexa-arginine SHAL. After four washes (two in 1% BSA in PBS, two in PBS), 50 μl of the cell suspensions was applied to freshly poly-L-Lysine coated slides, and cells were allowed to adhere for 10 min in a humid chamber. Fixation and permeabilization were performed at −20° C. by using a 4 min exposure to methanol. Jurkat's cells were treated in the same manner as a control.
Slides were then washed twice in PBS and blocked in 10% fetaplex serum (Gemini Bioproducts, West Sacramento, Calif.) in PBS for 15 min and washed once in PBS. The detection reagent, Streptavidin AlexaFluor 610 (Invitrogen, Carlsbad, Calif.) was diluted 1/500 in diluent, 100 μl was applied; a parafilm cover slip was layered over the solution to prevent evaporation. The slides were incubated in a humid chamber for 30 min., washed 5 times for 5 min each in PBS, and rinsed briefly in double distilled H2O. After the slides dried, cover slips were mounted with ProlongGold with 4′,6-diamidino-2-phenylindole (DAPI, Invitrogen, Carlsbad, Calif.). The slides were viewed with an Olympus FV1000 laser scanning confocal microscope and data were collected as Z-scans at 160×, with focal sections being taken 1 μm apart through the cell.

[2] = system: cultured cell lines containing HLA-DR10; settings: shown previously (Balhorn et al. 2007); cited from earlier work

binding to HLA-DR10 in subsequent screenings (HLA-DR10): precipitated onto the target protein
SMILES: Nc1ccc(Oc2ccc(C(=O)c3ccc(C(=O)c4ccc(Oc5ccc(N)cc5)cc4)cc3)cc2)cc1 [1,4-phenylenebis[[4-(4-aminophenoxy)phenyl]methanone]]

SMILES: CC(C)C(NS(=O)(=O)c1ccc(N=Nc2ccc(N(C)C)cc2)cc1)C(=O)NC(CCCCNC(=O)COCCOCCNC(=O)c1ccc(NC(=O)C(CCCNC(=N)N)NC(=O)c2ccccc2)cc1)C(=O)NCCOCCOCC(=O)NCCOCCOCC(=O)NCCOCCOCC(=O)NCCCCC(NC(=O)COCCOCCNC(=O)COCCOCCNC(=O)COCCOCCNC(=O)C(CCCCNC(=O)COCCOCCNC(=O)c1ccc(NC(=O)C(CCCNC(=N)N)NC(=O)c2ccccc2)cc1)NC(=O)C(NS(=O)(=O)c1ccc(N=Nc2ccc(N(C)C)cc2)cc1)C(C)C)C(=O)NC(CCCCNC(=O)CN1CCN(CC(=O)O)CCN(CC(=O)O)CCN(CC(=O)O)CC1)C(=O)O (centres unmarked) [(DvLPBaPPP)2LLDo]
Kd (HLA-DR10 protein): ~21 nM
pmoles SHAL Bound/10^6 cells unwashed ([1]; 5.3 pmoles of 111In-labeled SHAL, unwashed cell pellets): 0.568 ± 0.091 pmoles SHAL Bound/10^6 cells
pmoles SHAL Bound/10^6 cells Washed ([1]; 5.3 pmoles of 111In-labeled SHAL, washed two times with BSA/buffer): 0.263 ± 0.000 pmoles SHAL Bound/10^6 cells
proportion of SHAL retained by the cells after washing ([1]; Raji cells, after washing): ~46%
Percent SHAL Retained ([1]; after washing two times): 46%
SHAL binding, uptake and localization in Raji cells (Raji cells): intracellular binding; also recorded: Nuclear staining was not observed; also recorded: taken up and internalized
selective binding to HLA-DR10 expressing cell lines [2]: bind selectively to HLA-DR10 expressing cell lines
